According to the RepoRT retention time repository (doi:10.1016/j.chroma.2019.01.023):

Experiment: HILIC, Waters ACQUITY UPLC BEH Amide, 150 × 2.1 mm, 1.7 µm, 40 °C, 0.5 mL/min, estimated dead time 0.66 min; A: 5% water + 95% acetonitrile; B: 70% water + 30% acetonitrile + 10 mM ammonium formate, pH 6.5; gradient (min/%B) 0/0 2/0 20/70 23/70 24/0 31/0
Conditions: stereoisomer not certain

| SMILES | LC retention time [min] |
| --- | --- |
| CC12CCC(O)CC1CCC1C2C(O)CC2(C)C1CCC2(O)C(=O)CO (stereo not drawn) | 0.99 |
| C[n+]1cccc(C(N)=O)c1 [1-METHYLNICOTINAMIDE] | 8.27 |
| O=c1cccc[nH]1 [2-HYDROXYPYRIDINE] | 1.56 |
| CC(O)CC(=O)[O-] (stereo not drawn) [3-HYDROXYBUTANOATE] | 1.37 |
| COc1cc(CCN)ccc1O [3-METHOXYTYRAMINE] | 0.84 |
| CC1C(=O)Nc2ccccc21 (stereo not drawn) [3-METHYL-2-OXINDOLE] | 0.84 |
| Cn1cnc(=N)c2[nH]cnc21 [3-METHYLADENINE] | 5.66 |
| Cn1cncc1CCN [3-METHYLHISTAMINE] | 9.57 |
| NCCCCC(=O)O [5-AMINOPENTANOATE] | 10.4 |
| O=C1CCCCO1 [5-VALEROLACTONE] | 1.14 |
| CC(=O)C(C)O (stereo not drawn) [ACETOIN] | 8.78 |
| CC(=O)OCC[N+](C)(C)C [ACETYLCHOLINE] | 6.38 |
| NCCCCN=C(N)N.O=S(=O)(O)O [AGMATINE SULFATE] | 14 |
| Nc1ccccc1C(=O)[O-] [ANTHRANILATE] | 1.11 |
| NC(CC(=O)O)C(=O)O (stereo not drawn) [ASPARTATE] | 1.93 |
| NCc1ccccc1 [BENZYLAMINE] | 7.09 |
| NCCC(=O)O [BETA-ALANINE] | 10.4 |
| C[N+](C)(C)CC(=O)[O-] [BETAINE] | 7.63 |
| CCCC(=O)[O-] [BUTANOATE] | 1.29 |
| OCC1OC(OC2C(CO)OC(O)C(O)C2O)C(O)C(O)C1O (stereo not drawn) [CELLOBIOSE] | 10.9 |
| C[N+](C)(C)CCO [CHOLINE] | 7.51 |
| Nc1ccnc(=O)[nH]1 [CYTOSINE] | 5.15 |
| NCCC[C@@H](N)C(=O)O [D-ORNITHINE] | 14.4 |
| C[N+](C)(C)CCCC(=O)[O-] [DEOXYCARNITINE] | 10.8 |
| OCCNCCO [DIETHANOLAMINE] | 8.78 |
| O=C1CCNC(=O)N1 [DIHYDROURACIL] | 1.45 |
| CCCCCCCCCCCCCCCC(=O)OCC(COP(=O)(O)OCCN)OC(=O)CCCCCCCCCCCCCCC (stereo not drawn) [DIPALMITOYL-PHOSPHOETHANOLAMINE] | 4.45 |
| OCC(O)C(O)CO (stereo not drawn) [ERYTHRITOL] | 3.99 |

Experiment: HILIC, Merck SeQuant ZIC-pHILIC, 150 × 2.1 mm, 5 µm, 40 °C, 0.3 mL/min, estimated dead time 1.1 min; A: acetonitrile; B: water + 2.8 mM ammonium formate, pH 9; gradient (min/%B) 0/5 1/5 10/51 13/51 13.1/5 20/5
Conditions: stereoisomer not certain

| SMILES | LC retention time [min] |
| --- | --- |
| Nc1nc2c(c(=O)[nH]1)N=C(CNc1ccc(C(=O)NC(CCC(=O)O)C(=O)O)cc1)CN2 (stereo not drawn) [DIHYDROFOLATE] | 8.81 |
| CNCC(O)c1ccc(O)c(O)c1 (stereo not drawn) [EPINEPHRINE] | 2.03 |
| NCCOP(=O)(O)O [ETHANOLAMINE PHOSPHATE] | 9.23 |
| O=C(CO)C(O)C(O)C(O)COP(=O)(O)O (stereo not drawn) [FRUCTOSE 6-PHOSPHATE] | 9.3 |
| O=P(O)(O)OCC1OC(O)(COP(=O)(O)O)C(O)C1O (stereo not drawn) [FRUCTOSE BISPHOSPHATE] | 10.9 |
| CC(C)=CCCC(C)=CCOP(=O)(O)OP(=O)(O)O [GERANYL-PP] | 8.32 |
| O=C(O)C(O)C(O)C(O)C(O)CO (stereo not drawn) [GLUCONATE] | 8.5 |
| NC(C(=O)O)C(O)C(O)C(O)CO (stereo not drawn) [GLUCOSAMINATE] | 9.91 |
| NC1C(O)OC(COP(=O)(O)O)C(O)C1O (stereo not drawn) [GLUCOSAMINE 6-PHOSPHATE] | 10.2 |
| NC(CCC(=O)O)C(=O)O (stereo not drawn) [GLUTAMATE] | 8.69 |
| O=CC(O)COP(=O)(O)O (stereo not drawn) [GLYCERALDEHYDE 3-PHOSPHATE] | 6.24 |
| O=C(O)C(O)CO (stereo not drawn) [GLYCERATE] | 7.98 |
| O=P(O)(O)OCC(O)CO (stereo not drawn) [GLYCEROL 3-PHOSPHATE] | 8.79 |
| Nc1nc2c(ncn2C2OC(COP(=O)(O)OP(=O)(O)OC3OC(CO)C(O)C(O)C3O)C(O)C2O)c(=O)[nH]1 (stereo not drawn) [GUANOSINE DIPHOSPHATE MANNOSE] | 10.2 |
| Nc1nc2c(ncn2C2OC(COP(=O)(O)OP(=O)(O)O)C(O)C2O)c(=O)[nH]1 (stereo not drawn) [GUANOSINE DIPHOSPHATE] | 10.5 |
| Nc1nc2c(ncn2C2OC(COP(=O)(O)OP(=O)(O)OP(=O)(O)O)C(O)C2O)c(=O)[nH]1 (stereo not drawn) [GUANOSINE TRIPHOSPHATE] | 11.5 |
| NC(CCS)C(=O)O (stereo not drawn) [HOMOCYSTEINE] | 9.91 |
| NC(CCSSCCC(N)C(=O)O)C(=O)O (stereo not drawn) [HOMOCYSTINE] | 9.92 |
| NCCS(=O)O [HYPOTAURINE] | 8.8 |
| O=C(O)C(=O)Cc1c[nH]c2ccccc12 [INDOLE-3-PYRUVATE] | 5.17 |
| O=c1[nH]cnc2c1ncn2C1OC(COP(=O)([O-])OP(=O)([O-])O)C(O)C1O (stereo not drawn) [INOSINE 5'-DIPHOSPHATE] | 9.98 |
| O=c1[nH]cnc2c1ncn2C1OC(COP(=O)(O)OP(=O)(O)OP(=O)(O)O)C(O)C1O (stereo not drawn) [INOSINE TRIPHOSPHATE] | 11 |
| O=C(O)CC(C(=O)O)C(O)C(=O)O (stereo not drawn) [ISOCITRATE] | 10.5 |

| SMILES | LC retention time [min] |
| --- | --- |
| C=C(C)CCOP(=O)(O)OP(=O)(O)O [ISOPENTENYL PYROPHOSPHATE] | 8.52 |
| CC(O)C(=O)O (stereo not drawn) [LACTATE] | 1.54 |
| CS(=N)(=O)CCC(N)C(=O)O (stereo not drawn) [METHIONINE SULFOXIMINE] | 9.03 |
| COC(=O)c1ccc(O)c(OC)c1 [METHYL VANILLATE] | 1.47 |
| CCOC(=O)CC(=O)[O-] [MONOETHYLMALONATE] | 6.48 |
| CN(C)C(N)=NCCCC(N)C(=O)O (stereo not drawn) [N,N-DIMETHYL-ARGININE] | 2.02 |
| CC(=O)NC1C(O)CC(O)(C(=O)O)OC1C(O)C(O)CO (stereo not drawn) [N-ACETYLNEURAMINATE] | 8.33 |
| CC(=O)NC(CCCCN)C(=O)O (stereo not drawn) [N-ALPHA-ACETYLLYSINE] | 8.76 |
| NC(=O)C1=CN(C2OC(COP(=O)(O)OP(=O)(O)OCC3OC(n4cnc5c(N)ncnc54)C(OP(=O)(O)O)C3O)C(O)C2O)C=CC1 (stereo not drawn) [NADPH] | 10.1 |
| CCCCCCCCC(=O)[O-] [NONANOATE] | 5.16 |
| O=C(O)CCCC(=O)C(=O)O [OXOADIPATE] | 8.87 |
| O=C(O)CCC(=O)C(=O)O [OXOGLUTARATE] | 9.21 |
| OCC1OC(OCC2OC(O)(CO)C(O)C2O)C(O)C(O)C1O (stereo not drawn) [PALATINOSE] | 8.8 |
| O=C([O-])c1ccccn1 [PICOLINATE] | 6.41 |
| O=C(O)C1(O)CC(O)C(O)C(O)C1 (stereo not drawn) [QUINATE] | 8.1 |
| OCC1OC(OCC2OC(OC3(CO)OC(CO)C(O)C3O)C(O)C(O)C2O)C(O)C(O)C1O (stereo not drawn) [RAFFINOSE] | 9.56 |
| O=C(O)c1ccccc1O [SALICYLATE] | 1.91 |
| OCC1OC(OCC2OC(OCC3OC(OC4(CO)OC(CO)C(O)C4O)C(O)C(O)C3O)C(O)C(O)C2O)C(O)C(O)C1O (stereo not drawn) [STACHYOSE] | 10.1 |
| O=C(O)C=C(CC(=O)O)C(=O)O [TRANS-ACONITATE] | 10.5 |
| O=C(O)C1OC(OP(=O)(O)OP(=O)(O)OCC2OC(n3ccc(=O)[nH]c3=O)C(O)C2O)C(O)C(O)C1O (stereo not drawn) [URIDINE DIPHOSPHATE GLUCURONIC ACID] | 11 |
| O=c1ccn(C2OC(COP(=O)(O)O)C(O)C2O)c(=O)[nH]1 (stereo not drawn) [URIDINE MONOPHOSPHATE] | 8.67 |
| OC1COC(O)C(O)C1O (stereo not drawn) [XYLOSE] | 8.34 |
